From US12310945B2, “Cyclohexylglycine derivatives as selective cytotoxic agents” (Merck Sharp & Dohme LLC, priority 2022, dated 2025)

Each compound was assayed on PBMCs infected with VSV-G pseudotyped HIV virus stock (VSV-G/pNLG1-P2A-AEnv) (assay: cells). Details: Human immunodeficiency virus 1, PBMC, read-out: TACK EC50.
Assay type: cell-based
With N[C@H](C(=O)N1Cc2ccccc2C1)[C@H]1CC[C@H](N2CCCC2)CC1 [Example 1, (2S)-2-amino-1-(1,3-dihydroisoindol-2-yl)-2-[(1R,4S)-4-(pyrrolidin-1-yl)cyclohexyl]ethanone] the EC50 was 0.211 µM.
N[C@H](C(=O)N1Cc2ccccc2C1)[C@H]1CC[C@@H](O)CC1 [Example 2] was tested, and the EC50 was 6.42 µM.
N[C@H](C(=O)N1Cc2ccccc2C1)C1CCCCC1 [Example 3] was tested, and the EC50 was 1.41 µM.
With N#C[C@@H]1C[C@H](F)CN1C(=O)[C@@H](N)C1CCCCC1 [Example 4] the EC50 was 0.314 µM.
C#CCOCCO[C@H]1CCN(C2CCC([C@H](N)C(=O)N3Cc4ccccc4C3)CC2)C1 (stereo partly drawn) [Example 5] showed an EC50 of 0.533 µM.
For C#CCO[C@H]1CCN(C2CCC([C@H](N)C(=O)N3Cc4ccccc4C3)CC2)C1 (stereo partly drawn) [Example 6], the EC50 was 0.23 µM.
